What was measured:
[1] = In vitro metabolic stability in rat liver microsomes (Example 34); format: in vitro ADME, Sprague Dawley rat; conditions: 1 μM, predicted hepatic extraction ratio
Procedure: (§1) In vitro metabolic stabilities were studied at a concentration of 1 μM in the presence of liver microsomes and isolated hepatocytes.
A 100 mM potassium phosphate assay buffer solution (KPB) was prepared as follows. Both KH2PO4 and K2HPO4 were dissolved separately in reagent grade water resulting in final concentrations 100 mM. A 75:25 mixture v/v of K2HPO4:KH2PO4 was prepared and the pH of the solution was adjusted to 7.4 using diluted HCl or diluted NaOH solutions. A stock solution of test compound was prepared at 10 mM (active compound) in DMSO. The stock solution was diluted immediately before use to 2.5 μM using the KPB solution to create the working standard. All test compounds were completely soluble in DMSO by visual inspection at room temperature. […]
(§2) Data were acquired and peak areas were calculated for test compounds and the internal standard using Analyst 1.6.1 software (Sciex). […]
(§3) All calculations were performed using BioAssay Enterprise. The mean peak area ratios were calculated by averaging the peak area ratios (n=2) of test compound and the internal standard for each sample. Percent remaining was calculated by determining the ratio of the peak area ratio at each time point to the peak area ratio of the time-zero samples. The rate of loss of test compound (km) was determined by linear regression of—1n(f(t)) versus time. […] The t½ was determined dividing 1n(2) by km. […]

hERG = biological target: T1, hERG (Homo sapiens, UniProt Q12809); experiment: hERG ChanTest Fast Patch assay; format: cell-based
T1 construct: Charles River Laboratories International, Inc. (ChanTest assay service)
Procedure: The MDR1 efflux protocol is disclosed in Example 35 hereinbelow. The hERG IC50 values were measured using the ChanTest Fast Patch assay, available from Charles River Laboratories International, Inc. (http://www.criver.com/products-services/drug-discovery/cap abilities/ion-channel/selectivity-profiling).

[2] = test system: Rat cryopreserved hepatocytes; experiment: In vitro metabolic stability in rat hepatocytes (Example 34); format: in vitro ADME, Sprague Dawley rat; conditions: 1 μM, predicted hepatic extraction ratio
Procedure: as §1
A stock solution of the test compound was prepared at 10 mM (active compound) in DMSO. The in vitro stability of the test compound (1 μM) was assessed in the presence of hepatocytes as follows. Cryopreserved hepatocytes were thawed, isolated from shipping media and diluted to a density of 1×10^6 viable cells/mL, according to the supplier's guidelines, using Dulbecco's Modified Eagle Medium, 1×, high glucose (DMEM, Invitrogen, Carlsbad, Calif.). Viability was determined by trypan blue exclusion using a hemocytometer (3500 Hausser, VWR, West Chester, Pa.). […]
as §2, §3

T1 sequence (Q12809 whole entry): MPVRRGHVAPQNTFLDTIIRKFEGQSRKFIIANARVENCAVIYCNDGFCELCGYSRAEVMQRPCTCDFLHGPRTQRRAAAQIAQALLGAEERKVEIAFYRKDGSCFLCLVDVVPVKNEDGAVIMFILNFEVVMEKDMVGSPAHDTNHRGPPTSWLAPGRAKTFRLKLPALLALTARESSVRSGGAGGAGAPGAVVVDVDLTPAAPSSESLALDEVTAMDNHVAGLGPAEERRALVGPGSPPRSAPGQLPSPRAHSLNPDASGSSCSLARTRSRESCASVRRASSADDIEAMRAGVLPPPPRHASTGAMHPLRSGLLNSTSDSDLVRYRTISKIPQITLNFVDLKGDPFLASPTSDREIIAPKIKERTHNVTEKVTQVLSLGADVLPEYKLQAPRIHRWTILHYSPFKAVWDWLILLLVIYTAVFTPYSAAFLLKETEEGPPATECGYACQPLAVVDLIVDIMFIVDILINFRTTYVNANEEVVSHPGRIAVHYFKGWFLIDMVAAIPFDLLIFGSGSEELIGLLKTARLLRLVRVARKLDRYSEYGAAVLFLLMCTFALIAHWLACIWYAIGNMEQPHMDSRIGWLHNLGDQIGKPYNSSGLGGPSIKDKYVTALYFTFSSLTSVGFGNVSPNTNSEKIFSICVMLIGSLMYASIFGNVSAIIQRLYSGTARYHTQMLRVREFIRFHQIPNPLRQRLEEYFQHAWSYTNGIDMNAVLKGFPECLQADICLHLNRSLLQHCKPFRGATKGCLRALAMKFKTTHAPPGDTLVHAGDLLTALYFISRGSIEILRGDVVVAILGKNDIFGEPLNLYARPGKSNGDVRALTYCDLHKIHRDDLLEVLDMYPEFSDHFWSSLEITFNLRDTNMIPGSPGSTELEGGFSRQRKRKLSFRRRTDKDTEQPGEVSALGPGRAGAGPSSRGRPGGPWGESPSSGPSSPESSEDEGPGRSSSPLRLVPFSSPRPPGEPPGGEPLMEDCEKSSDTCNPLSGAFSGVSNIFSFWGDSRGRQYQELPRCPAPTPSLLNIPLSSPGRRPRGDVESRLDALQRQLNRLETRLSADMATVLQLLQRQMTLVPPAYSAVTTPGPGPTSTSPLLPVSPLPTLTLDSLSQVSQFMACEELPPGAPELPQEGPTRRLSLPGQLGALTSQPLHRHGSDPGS

| SMILES | Rat Microsome Clearance (% ER) [1] | IC50 (hERG) | Rat Hepatocyte Clearance (% ER) [2] |
| --- | --- | --- | --- |
| C[C@@H]1CCc2ncc(F)cc2[C@H]2CCCN2c2ccn3ncc(c3n2)C(=O)N1 [Formula I] | 51 % ER | 27 µM | 64 % ER |
| C[C@H]1CCc2ncc(F)cc2[C@H]2CCCN2c2ccn3ncc(c3n2)C(=O)N1 [formula I′] | 77 % ER | 9 µM | 83 % ER |

Reference: US11091486B2, “Process for the preparation of pyrazolo[1,5-a]pyrimidines and salts thereof” (Array BioPharma Inc., priority 2016, dated 2021)
